Experimental data from US20240360157A1, “TYK2 INHIBITORS” (BIOGEN MA INC., priority 2021, published 2024).
Where a name gives a salt, the structure may show the parent alone.

Tests used:
Type in all cases: biochemical
[1] = molecular target: human JAK2 catalytic kinase (JH1) domain (Homo sapiens (Human), UniProt O60674); assay: ADP-Glo Kinase Assay, recombinant JAK2 catalytic kinase (JH1) domain; conditions: recombinant JH1 domain 0.2 nM, 15 μM ATP, JAK3-974 peptide, mean, read-out: JAK2 biochem IC50 (nM) Mean
Sequence of human JAK2 catalytic kinase (JH1) domain (O60674 849-1124): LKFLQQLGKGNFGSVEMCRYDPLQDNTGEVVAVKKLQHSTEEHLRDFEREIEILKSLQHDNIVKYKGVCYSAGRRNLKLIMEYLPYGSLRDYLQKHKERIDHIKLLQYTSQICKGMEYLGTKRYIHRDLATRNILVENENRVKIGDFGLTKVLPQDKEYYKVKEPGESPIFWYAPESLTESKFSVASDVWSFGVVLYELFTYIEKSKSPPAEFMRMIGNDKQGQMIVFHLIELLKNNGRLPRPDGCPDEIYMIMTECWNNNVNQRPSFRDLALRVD
How it was run: (§1)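 Kinase 4 nM JAK1 / 0.2 nM JAK2 / 0.3 nM JAK3 / 2 nM TYK2; 50 μM peptide; 100 min. Unused ATP depleted, ADP→ATP, luciferase luminescence. 11-pt 3-fold series from 10 or 1 μM; normalized, 4PL fit → IC50.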

[2] = molecular target: human JAK3 catalytic kinase (JH1) domain (Homo sapiens (Human), UniProt P52333); assay: ADP-Glo Kinase Assay, recombinant JAK3 catalytic kinase (JH1) domain; conditions: recombinant JH1 domain 0.3 nM, 4 μM ATP, JAK3-974 peptide, mean, read-out: JAK3 biochem IC50 (nM) Mean
Sequence of human JAK3 catalytic kinase (JH1) domain (P52333 822-1111): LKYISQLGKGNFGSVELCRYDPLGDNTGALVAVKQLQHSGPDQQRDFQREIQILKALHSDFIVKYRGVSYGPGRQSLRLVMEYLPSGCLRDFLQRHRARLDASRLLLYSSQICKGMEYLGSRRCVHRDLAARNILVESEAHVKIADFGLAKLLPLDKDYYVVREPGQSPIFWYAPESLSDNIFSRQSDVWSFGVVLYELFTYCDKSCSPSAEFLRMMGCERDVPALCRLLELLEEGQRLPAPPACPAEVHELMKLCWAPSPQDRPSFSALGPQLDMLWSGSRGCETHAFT
How it was run: as §1

[3] = molecular target: human TYK2 catalytic kinase (JH1) domain (Homo sapiens (Human), UniProt P29597); assay: ADP-Glo Kinase Assay, recombinant TYK2 catalytic kinase (JH1) domain; conditions: recombinant JH1 domain 2 nM, 10 μM ATP, JAK3-974 peptide, mean, read-out: TYK2 biochem IC50 (nM) Mean
Sequence of human TYK2 catalytic kinase (JH1) domain (P29597 897-1176): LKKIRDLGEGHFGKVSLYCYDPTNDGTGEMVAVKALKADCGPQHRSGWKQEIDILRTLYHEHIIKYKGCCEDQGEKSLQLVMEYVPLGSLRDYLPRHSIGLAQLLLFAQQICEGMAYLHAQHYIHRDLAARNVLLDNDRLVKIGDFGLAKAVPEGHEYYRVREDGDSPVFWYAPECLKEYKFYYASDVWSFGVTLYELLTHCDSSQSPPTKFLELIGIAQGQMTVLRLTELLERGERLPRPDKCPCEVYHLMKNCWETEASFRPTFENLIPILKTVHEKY
How it was run: as §1

[4] = molecular target: human JAK1 catalytic kinase (JH1) domain (Homo sapiens (Human), UniProt P23458); assay: ADP-Glo Kinase Assay, recombinant JAK1 catalytic kinase (JH1) domain; conditions: recombinant JH1 domain 4 nM, 35 μM ATP, JAK3-342 peptide, mean, read-out: JAK1 biochem IC50 (nM) Mean
Sequence of human JAK1 catalytic kinase (JH1) domain (P23458 875-1153): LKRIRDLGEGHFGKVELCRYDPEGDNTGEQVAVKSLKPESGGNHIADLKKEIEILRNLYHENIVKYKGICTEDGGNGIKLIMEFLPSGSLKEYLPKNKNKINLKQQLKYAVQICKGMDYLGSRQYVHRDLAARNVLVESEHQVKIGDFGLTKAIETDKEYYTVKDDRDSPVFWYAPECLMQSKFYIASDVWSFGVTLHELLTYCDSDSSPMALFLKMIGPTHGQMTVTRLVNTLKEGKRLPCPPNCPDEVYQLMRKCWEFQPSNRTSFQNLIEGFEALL
How it was run: as §1

Structure (SMILES) | IC50 [1] [nM] | IC50 [2] [nM] | IC50 [3] [nM] | IC50 [4] [nM]
N#C[C@H]1C[C@@H]1C(=O)N1C2CCC1CN(c1ncnn3cc(-c4cnn(C(F)F)c4)cc13)C2 (racemic) [Example 53, Rac-(1S,2S)-2-(3-(6-(1-(difluoromethyl)-1H-pyrazol-4-yl)pyrrolo[2,1-f][1,2,4]triazin-4-yl)-3,8-diazabicyclo[3.2.1]octane-8-carbonyl)cyclopropane-1-carbonitrile] | 3380 | 7370 | 166 | 840
O=C(C1CC1)N1C2CCC1CN(c1ccnc3[nH]c(-c4cnn(C(F)F)c4)cc13)C2 [Example 237, cyclopropyl(3-(2-(1-(difluoromethyl)-1H-pyrazol-4-yl)-1H-pyrrolo[2,3-b]pyridin-4-yl)-3,8-diazabicyclo[3.2.1]octan-8-yl)methanone] | 39 | 183 | 1.1 | 50
O=C([C@@H]1C[C@H]1F)N1C2CCC1CN(c1ccnc3[nH]c(C4(F)CC4)nc13)C2 [Example 210, ((1S,2R)-2-fluorocyclopropyl)(3-(2-(1-fluorocyclopropyl)-3H-imidazo[4,5-b]pyridin-7-yl)-3,8-diazabicyclo[3.2.1]octan-8-yl)methanone] | 2600 | 5520 | 398 | 798
COc1ccc(-c2cc3c(N4CC5CCC(C4)N5C(=O)C4CC4)ncnn3c2)cn1 [Example 178] | 10000 | 6270 | 719 | 2020
O=C([C@@H]1C[C@H]1F)N1C2CCC1CN(c1ccnn3cc(-c4ccnc(F)c4)cc13)C2 [Example 170] | 36 | 344 | 1.2 | 25
Cn1cc(-c2cc3c(N4CC5CCC(C4)N5C(=O)C4CC4)ncnc3[nH]2)cn1 [Example 220, cyclopropyl(3-(6-(1-methyl-1H-pyrazol-4-yl)-7H-pyrrolo[2,3-d]pyrimidin-4-yl)-3,8-diazabicyclo[3.2.1]octan-8-yl)methanone] | 690 | 501 | 34 | 242
COc1cc(-c2nc3c(N4CC5CCC(C4)N5C(=O)[C@@H]4C[C@H]4F)ccnc3[nH]2)ccn1 [Example 203, ((1S,2R)-2-fluorocyclopropyl)(3-(2-(2-methoxypyridin-4-yl)-3H-imidazo[4,5-b]pyridin-7-yl)-3,8-diazabicyclo[3.2.1]octan-8-yl)methanone] | 42 | 578 | 7 | 19
Cc1cc(-c2cc3c(N4CC5CCC(C4)N5C(=O)[C@@H]4C[C@H]4F)ccnn3c2)ncn1 [Example 106, ((1S,2R)-2-fluorocyclopropyl)(3-(6-(6-methylpyrimidin-4-yl)pyrrolo[1,2-b]pyridazin-4-yl)-3,8-diazabicyclo[3.2.1]octan-8-yl)methanone] | 178 | 3200 | 13.7 | 448
N#Cc1ccc(-c2cc3c(N4CC5CCC(C4)N5C(=O)[C@@H]4C[C@H]4F)ncnc3[nH]2)cn1 [Example 227, 5-(4-(8-((1S,2R)-2-fluorocyclopropane-1-carbonyl)-3,8-diazabicyclo[3.2.1]octan-3-yl)-7H-pyrrolo[2,3-d]pyrimidin-6-yl)picolinonitrile] | 418 | 1590 | 31.6 | 268
O=C(C1CC1)N1C2CCC1CN(c1ncnn3cc(-c4cnn(C(F)F)c4)c(F)c13)C2 [Example 163] | 10000 | 10000 | 746 | 5120
Cn1cc(-c2cc3c(N4CC5CCC(C4)N5C(=O)[C@@H]4C[C@H]4F)ncnn3c2)cn1 [Example 82, ((1S,2R)-2-fluorocyclopropyl)(3-(6-(1-methyl-1H-pyrazol-4-yl)pyrrolo[2,1-f][1,2,4]triazin-4-yl)-3,8-diazabicyclo[3.2.1]octan-8-yl)methanone] | 8860 | 3060 | 400 | 1650
C[C@]1(F)C[C@@H](C(=O)N2C3CCC2CN(c2ncnn4cc(-c5cnn(C(F)F)c5)cc24)C3)C1 [Example 33, (3-(6-(1-(difluoromethyl)-1H-pyrazol-4-yl)pyrrolo[2,1-f][1,2,4]triazin-4-yl)-3,8-diazabicyclo[3.2.1]octan-8-yl)((1s,3s)-3-fluoro-3-methylcyclobutyl)methanone trifluoroacetate] | 6140 | 4430 | 476 | 854
O=C([C@H]1C[C@@H]1CO)N1C2CCC1CN(c1ncnn3cc(-c4cnn(C(F)F)c4)cc13)C2 (single isomer, unassigned) [Example 39] | 9090 | 6380 | 762 | 2130
CC(C)n1cc(-c2cc3c(N4CC5CCC(C4)N5C(=O)C4CC4)ncnn3c2)cn1 [Example 148] | 1650 | 2140 | 136 | 731
O=C([C@@H]1CC1(F)F)N1C2CCC1CN(c1ncnn3cc(-c4cnn(C(F)F)c4)cc13)C2 [Example 3, ((S)-2,2-difluorocyclopropyl)(3-(6-(1-(difluoromethyl)-1H-pyrazol-4-yl)pyrrolo[2,1-f][1,2,4]triazin-4-yl)-3,8-diazabicyclo[3.2.1]octan-8-yl)methanone] | 714 | 6160 | 27.8 | 653
O=C(C1CC1)N1C2CCC1CN(c1ncnn3cc(-c4ccccc4F)cc13)C2 [Example 182] | 10000 | 8600 | 704 | 3660
O=C([C@@H]1C[C@H]1CO)N1C2CCC1CN(c1ncnn3cc(-c4cnn(C(F)F)c4)cc13)C2 (single isomer, unassigned) [Example 40] | 9400 | ≥ 10000 | 289 | 5120
O=C([C@@H]1C[C@H]1F)N1C2CCC1CN(c1ncnn3cc(-c4ccnc(F)c4)cc13)C2 [Example 164] | 1300 | 7250 | 48.8 | 447
O=C([C@@H]1C[C@H]1F)N1C2CCC1CN(c1ncnc3[nH]c(-c4ccnnc4)cc13)C2 [Example 234, ((1S,2R)-2-fluorocyclopropyl)(3-(6-(pyridazin-4-yl)-7H-pyrrolo[2,3-d]pyrimidin-4-yl)-3,8-diazabicyclo[3.2.1]octan-8-yl)methanone] | 598 | 3200 | 28.6 | 388
O=C([C@@H]1C[C@H]1F)N1C2CCC1CN(c1ccnn3cc(-c4ccc(=O)n(C(F)F)c4)cc13)C2 [Example 132, 1-(difluoromethyl)-5-(4-(8-((1S,2R)-2-fluorocyclopropane-1-carbonyl)-3,8-diazabicyclo[3.2.1]octan-3-yl)pyrrolo[1,2-b]pyridazin-6-yl)pyridin-2(1H)-one] | 37 | 452 | 3.3 | 34
Cn1cc(-c2cc3c(N4CC5CCC(C4)N5S(=O)(=O)C4CC4)ccnn3c2)cn1 [Example 189, 4-(8-(cyclopropylsulfonyl)-3,8-diazabicyclo[3.2.1]octan-3-yl)-6-(1-methyl-1H-pyrazol-4-yl)pyrrolo[1,2-b]pyridazine] | 208 | 1020 | 46.5 | 1210
Cn1cc(-c2cc3c(N4CC5CCC(C4)N5C(=O)[C@H]4C[C@@H]4C#N)ncnn3c2)cn1 (racemic) [Example 66, Rac-(1S,2S)-2-(3-(6-(1-methyl-1H-pyrazol-4-yl)pyrrolo[2,1-f][1,2,4]triazin-4-yl)-3,8-diazabicyclo[3.2.1]octane-8-carbonyl)cyclopropane-1-carbonitrile] | 3610 | 5540 | 242 | 1510
